Test results reported in patent US20050037989A1, “Inhibition of gene function by delivery of polynucleotide-based gene expression inhibitors to mammalian cells in vivo” (priority 2001, published 2005).
d = 2'-deoxy (DNA); r = 2'-OH (RNA)

Tested on: luciferase+ mRNA
Assay: Inhibition of luciferase expression in lung after delivery of siRNA using recharged particles (lPEI/pAA)
Assay type: in vivo, ICR mice
Method: Inhibition of Luciferase expression in lung after in vivo delivery of siRNA using recharged particles. Recharged particles were formed to deliver the reporter genes luciferase+ and Renilla luc as well as siRNA targeted against luciferase+ mRNA or a control siRNA to the lung. In this experiment, particles containing the reporter genes were delivered first, followed by delivery of particles containing the siRNAs. In all cases, particles were prepared with the polycation linear polyethylenimine (IPEI) and the polyanion polyacrylic acid (pAA). For delivery of reporter genes, particles were prepared which contained a mixture of the luc+ and Renilla luc expression plasmids. Normalization of expression of the two luciferase genes corrects for varying plasmid delivery efficiencies between animals. Particles containing a mixture of the expression plasmids containing the luciferase+ gene and the Renilla luciferase gene were injected intravascularly. Particles containing siRNA-Luc+ or a control siRNA were injected intravascularly immediately following injection of the plasmid-containing particles. 24 hours later, the lungs were harvested and the homogenate assayed for both Luc+ and Renilla Luc activity.
Specific experimental details were as follows: plasmid-containing particles were prepared by mixing 45 μg pGL3 control (Luc+) and 5 μg pRL-SV40 (Renilla Luc) with 300 μg IPEI in 10 mM HEPES, pH 7.5/5% glucose. After vortexing for 30 seconds, 50 μg pAA was added and the solution vortexed was for 30 seconds. siRNA-containing particles were prepared similarly, except 25 μg siRNA was used with 200 μg IPEI and 25 μg pAA. Particles containing the plasmid DNAs (total volume 250 μl) were injected into the tail vein of ICR mice. In animals that received siRNA, particles containing siRNA (total volume 100 μl) were injected into the tail vein immediately after injection of the plasmid DNA-containing particles. 1.5 mg pAA in 100 μl was then injected into the tail vein some animal 0.5 h later. 24 h later, animals were sacrificed and the lungs were harvested and homogenized. The homogenate was assayed for Luc+ and Renilla Luc activity using the Dual Luciferase Assay Kit (Promega Corporation).

[1] = lung homogenate, 24 h, 25 μg siRNA in lPEI/pAA particles
[2] = siRNA particles injected after plasmid particles

siRNA-luc+: annealed oligomers SEQ ID 4 and SEQ ID 5 containing luc+ coding sequence, positions 155-173 of the luc+ reading frame (chain 1 CUUACGCUGAGUACUUCGATT; chain 2 UCGAAGUACUCAGCGUAAGTT; sugars from the 5' end r19 d2, backbone not given here; listed as Photinus pyralis)
Luc+ Relative light units, Replicate 1 [1]: 326697 Relative light units | Luc+ Relative light units, Replicate 2 [1]: 428079 Relative light units | Renilla Luc Relative light units, Replicate 1 [1]: 1283313 Relative light units | Renilla Luc Relative light units, Replicate 2 [1]: 2683842 Relative light units | Average Luc+/Renilla Luc ratio (lung, 24 h): 0.21 +/− 0.07 | Normalized Luc+/Renilla Luc (lung, 24 h, plasmids only = 1.00): 0.48 +/− 0.16 | effect on Luc+ expression in lung (in words) [2]: specific inhibition of Luc+ expression | effect on Renilla Luc expression in lung (in words) [2]: not inhibited
